Source: patent publication US20080118940A1, “PROTEASOMAL PEPTIDASE ACTIVITY AND THE USE THEREOF IN CLINICAL APPLICATIONS” (priority 2006, published 2008)

Tests used:
[1] = target: T1, Pure human 20S proteasome (Homo sapiens, UniProt P28074); experiment: Specificity of proteasomal enzymatic assay: Ch-L activity of purified 20S proteasome; type: biochemical; details: Suc-LLVY-AMC
T1 construct: purchased Biomol International PW8720-0050

[2] = target: T2, proteasomal caspase-like activity (Cas-L) (Homo sapiens, UniProt P28072); experiment: Proteasome inhibitor effect on caspase-like (Cas-L) peptidase activity, fluorogenic Z-LLE-AMC assay; type: biochemical; details: purified proteasome, plasma and white blood cell lysate; YU-101 0.4 μg/mL; substrate 200 μM
T2 construct: in samples of purified proteasome, plasma, and white blood cell lysate; from tissue; host or cells: purified proteasome; plasma; white blood cell lysate (normal individuals)
T2 sequence (P28072 1-239): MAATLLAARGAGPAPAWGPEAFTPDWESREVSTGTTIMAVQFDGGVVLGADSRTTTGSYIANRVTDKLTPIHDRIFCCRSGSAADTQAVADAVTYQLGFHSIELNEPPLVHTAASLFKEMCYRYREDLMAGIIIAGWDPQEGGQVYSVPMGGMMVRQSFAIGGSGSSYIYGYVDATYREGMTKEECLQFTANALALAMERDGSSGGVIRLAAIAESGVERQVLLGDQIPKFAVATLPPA
Protocol: (§1) Ch-L, Tr-L, and Cas-L activities in peripheral blood plasma from patients were measured as follows. Frozen patient plasma samples were processed by thawing at room temperature and mixed thoroughly. 45 μL of thawed plasma was pipetted into a microfuge tube (Tube 1), and 22.5 μL plasma was pipetted into another microfuge tube (Tube 2). 5 μL 10% SDS was pipetted into Tube 1, and 2.5 μL 10% tween 20 was pipetted into Tube 2. Each tube was mixed and incubated at room temperature for 15 minutes resulting in processed samples. All buffers, substrate stock solutions, controls, and microwell plates were equilibrated to room temperature. The proteasome control was placed on ice immediately after thawing. […] Cleavage of substrate was detected using the SPECTRAmax GEMINI EM instrument with SoftMax Pro data Collection software. […] Fluorescence excitation and emission wavelengths were 380 nm and 460 nm, respectively. Samples were read at 1 minute intervals over 30 minutes. Green fluorescence was detected in columns 1, 4, 7, and 10, representing Ch-L activity; blue fluorescence was detected in columns 3, 6, 9, and 12, representing Cas-L activity; and yellow fluorescence was detected in columns 2, 5, 8, and 11, representing Tr-L activity. […]

[3] = test system: proteasome Ch-L activity in plasma from an AML patient; experiment: Dose response of Ch-L activity in plasma from an AML patient; type: biochemical, human; details: for % Inhibition / Activity: AML patient plasma
Protocol: (§2) Ch-L, Tr-L, and Cas-L activities in peripheral blood plasma from patients were measured as follows. Frozen patient plasma samples were processed by thawing at room temperature and mixed thoroughly. 45 μL of thawed plasma was pipetted into a microfuge tube (Tube 1), and 22.5 μL plasma was pipetted into another microfuge tube (Tube 2). 5 μL 10% SDS was pipetted into Tube 1, and 2.5 μL 10% tween 20 was pipetted into Tube 2. Each tube was mixed and incubated at room temperature for 15 minutes resulting in processed samples. All buffers, substrate stock solutions, controls, and microwell plates were equilibrated to room temperature. The proteasome control was placed on ice immediately after thawing. Substrate working solutions (1 mM) were made by adding 950 μL buffer A (1×HEPES/0.05% SDS) to 50 μL stock solution of Ch-L and Cas-L substrates (20 mM Suc-LLVY-AMC and 20 mM Z-LLE-AMC) and mixed. 950 μL buffer B (1×HEPES/0.05% Tween 20) was added to 50 μL stock solution of Tr-L substrate (20 mM BZ-VGR-AMC) and mixed. Working solutions were protected from light. A microwell plate (containing 12 columns of wells) was set-up according to a plate map as follows: 30 μL buffer A was pipetted into the wells of columns 1, 4, 7, and 10 (to measure Ch-L activity) and 3, 6, 9, and 12 (to measure Cas-L activity). 30 μL buffer B was pipetted into the wells of columns 2, 5, 8, and 11 (to measure Tr-L). 10 μL buffer A or B served as blank controls. 10 μL of processed samples were pipetted into duplicate wells for each substrate (i.e., 6 wells per processed plasma sample), to the designated wells according to the plate map. 10 μL of substrate was added to the designated wells according to the plate map. The final concentration of substrate was 200 μM. Cleavage of substrate was detected using the SPECTRAmax GEMINI EM instrument with SoftMax Pro data Collection software. The instrument incubation chamber temperature was set to 37° C. Fluorescence excitation and emission wavelengths were 380 nm and 460 nm, respectively. Samples were read at 1 minute intervals over 30 minutes. Green fluorescence was detected in columns 1, 4, 7, and 10, representing Ch-L activity; blue fluorescence was detected in columns 3, 6, 9, and 12, representing Cas-L activity; and yellow fluorescence was detected in columns 2, 5, 8, and 11, representing Tr-L activity.
A dose response study was conducted to determine the effect of concentration of YU-101 on Ch-L activity as assayed in plasma from an AML patient. YU-101 (200 ng/μL) was serially diluted 1:4 in HEPES buffer to produce solutions having concentrations of 0.78, 3.125, 12.5, 50, and 200 ng/μL for dose response experiments. 70 μL of plasma from an AML patient was combined with 1 μL inhibitor solution and incubated at room temperature for 15 minutes. Ch-L activity was determined as in Example 1.

[4] = test system: proteasome Ch-L activity in whole blood cell lysate from a normal individual; experiment: Dose response of Ch-L activity in whole blood lysate from a normal individual; type: biochemical, human; design: Activity: unit not given beside the values; details: for % Inhibition / Activity: whole blood, normal individual
Protocol: as §2
A dose response study was conducted to determine the effect of concentration of YU-101 on Ch-L activity in a whole blood lysate from a normal individual. YU-101 (200 ng/μL) was serially diluted 1:2 in HEPES buffer to produce solutions having concentrations of 6.25, 12.5, 25, 50, and 100 ng/μL for dose response experiments. 70 μL of […] was combined with 1 μL inhibitor solution and incubated at room temperature for 15 minutes. Ch-L activity was determined as in Example 1.

[5] = test system: proteasomal trypsin-like activity (Tr-L); experiment: Proteasome inhibitor effect on trypsin-like (Tr-L) peptidase activity, fluorogenic BZ-VGR-AMC assay; type: biochemical, human; details: purified proteasome, plasma and white blood cell lysate; YU-101 0.4 μg/mL; substrate 200 μM
Protocol: as §1

[6] = test system: proteasomal chymotrypsin-like activity (Ch-L); experiment: Proteasome inhibitor effect on chymotrypsin-like (Ch-L) peptidase activity, fluorogenic Suc-LLVY-AMC assay; type: biochemical, human; details: purified proteasome, plasma and white blood cell lysate; YU-101 0.4 μg/mL; substrate 200 μM
Protocol: as §1

[7] = target: T3, human pancreatic α-chymotrypsin (Homo sapiens, UniProt P17538); experiment: Specificity of proteasomal enzymatic assay: pancreatic chymotrypsin activity; type: biochemical; details: Suc-LLVY-AMC
T3 construct: purchased Sigma C-8946; host or cells: isolated from human pancreas
T3 sequence (P17538 34-164 limits assumed, other chains not shown): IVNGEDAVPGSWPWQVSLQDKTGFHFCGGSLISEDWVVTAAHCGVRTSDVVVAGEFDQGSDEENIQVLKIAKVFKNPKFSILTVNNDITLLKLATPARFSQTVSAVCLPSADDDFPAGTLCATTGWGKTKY
T3 sequence (P17538 167-263 limits assumed, other chains not shown): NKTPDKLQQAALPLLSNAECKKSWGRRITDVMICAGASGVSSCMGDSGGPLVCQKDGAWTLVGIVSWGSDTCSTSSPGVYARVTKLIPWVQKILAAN
Protocol: as §1

Molecule: CC(=O)NC(CCc1ccccc1)C(=O)NC(CC(C)C)C(=O)NC(Cc1ccccc1)C(=O)NC(CC(C)C)C(=O)C1(C)CO1 (centres unmarked) [YU-101]
- Vmax Ch-L (fluorescence) ([1]; purified 20S proteasome + YU-101, final 4 ng/μL): No activity
- inhibition of caspase-L activity [2]: weaker inhibitor
- % Inhibition ([3]; approx. YU-101 0.00156 ng/μL): 0.00%
- Activity ([3]; approx. YU-101 0.00156 ng/μL): 233781
- % Inhibition ([3]; approx. YU-101 0.00625 ng/μL): 8.98%
- Activity ([3]; approx. YU-101 0.00625 ng/μL): 212786
- % Inhibition ([3]; approx. YU-101 0.025 ng/μL): 38.41%
- Activity ([3]; approx. YU-101 0.025 ng/μL): 143991
- % Inhibition ([3]; approx. YU-101 0.1 ng/μL): 62.54%
- Activity ([3]; approx. YU-101 0.1 ng/μL): 87573
- % Inhibition ([3]; approx. YU-101 0.4 ng/μL): 69.56%
- Activity ([3]; approx. YU-101 0.4 ng/μL): 71162
- inhibition of Ch-L activity, dose dependence ([3]; plasma of an AML patient): dose-dependent
- inhibition of Ch-L activity, dose dependence ([4]; whole blood cell lysate from a normal individual): dose-dependent
- % Inhibition ([4]; approx. YU-101 0.0125 ng/μL): 3.2%
- Activity ([4]; approx. YU-101 0.0125 ng/μL): 92002
- % Inhibition ([4]; approx. YU-101 0.025 ng/μL): 24.0%
- Activity ([4]; approx. YU-101 0.025 ng/μL): 72252
- % Inhibition ([4]; approx. YU-101 0.05 ng/μL): 38.4%
- Activity ([4]; approx. YU-101 0.05 ng/μL): 58544
- % Inhibition ([4]; approx. YU-101 0.1 ng/μL): 82.0%
- Activity ([4]; approx. YU-101 0.1 ng/μL): 17070
- % Inhibition ([4]; approx. YU-101 0.2 ng/μL): 92.6%
- Activity ([4]; approx. YU-101 0.2 ng/μL): 7024
- inhibition of trypsin-L activity [5]: weaker inhibitor
- inhibition of chymotrypsin-L activity [6]: strong inhibitor
- Vmax Ch-L (fluorescence) ([7]; pancreatic α-chymotrypsin + YU-101, final 4 ng/μL): No activity

B1: α1-anti-chymotrypsin: pancreatic chymotrypsin inhibitor (Sigma, catalog #A9285) (protein, UniProt P01011 24-423, looked up)
Alpha-1-antichymotrypsin: HPNSPLDEENLTQENQDRGTHVDLGLASANVDFAFSLYKQLVLKAPDKNVIFSPLSISTALAFLSLGAHNTTLTEILKGLKFNLTETSEAEIHQSFQHLLRTLNQSSDELQLSMGNAMFVKEQLSLLDRFTEDAKRLYGSEAFATDFQDSAAAKKLINDYVKNGTRGKITDLIKDLDSQTMMVLVNYIFFKAKWEMPFDPQDTHQSRFYLSKKKWVMVPMMSLHHLTIPYFRDEELSCTVVELKYTGNASALFILPDQDKMEEVEAMLLPETLKRWRDSLEFREIGELYLPKFSISRDYNLNDILLQLGIEEAFTSKADLSGITGARNLAVSQVVHKAVLDVFEEGTEASAATAVKITLLSALVETRTIVRFNRPFLMIIVPTDTQNIFFMSKVTNPKQA
- Vmax Ch-L (fluorescence) ([1]; purified 20S proteasome + α1-anti-chymotrypsin, final 40 ng/μL): 121,813
- Vmax Ch-L (fluorescence) ([7]; pancreatic α-chymotrypsin + α1-anti-chymotrypsin, final 40 ng/μL): No activity
